# Entries after “also recorded” stand apart in the source; their conditions may differ. Where a SMILES comes first, the peptide text is derived from it.
# Legend:
# [1] = Pharmacokinetics assay in mice
# Experimental: UM206 was injected into the femoral artery of Swiss mice (concentration of 10^−9 M). Blood was sampled at different time points in the femoral vein. On the y-axis, the concentration of UM206 in the plasma is shown. This is determined with HPLC and the area under the peak is calculated and shown on the y-axis. All values were corrected for the baseline value.
# In order to determine the pharmacokinetic properties of UM206, we injected 15 ng of the compound into the tail vein of mice and monitored the concentration in the blood at different time points.
# Male Swiss mice were used (10-12 weeks of age, Charles River, Maastricht, The Netherlands).
# Blood samples were collected from the animals for the pharmacokinetics and after 14 to 35 days treatment, to determine the concentration of UM206. Blood was centrifuged and the plasma was treated with 1% TFA.
# Pharmacokinetics in rats = assay type: in vivo
# small intestine = test: qPCR of Wnt target genes in small intestine after long-term UM206 administration; assay type: in vivo, mice; set-up: key to Rel. exp. Col I: expression normalized to cyclophilin housekeeping gene; key to Rel. exp. Inos / Rel. exp. CD 44 / Rel. exp. Axin 2 / Rel. exp. Itm 2A / Rel. exp. Mmp 2 / Rel. exp. Ascl 2 / Rel. exp. Dvl 2: relative expression, cyclophilin as housekeeping gene
# From the text: This was confirmed by histological analysis of the infarct area.
# RNA was isolated using the Trizol method (Invitrogen). For the RT-PCR, the RNA was transcribed to cDNA with iscript™ cDNA synthesis kit (Bio-Rad, Hercules Calif., USA), Syber green (Eurogentec, Ghent, Belgium) was used for the detection of cDNA levels and cyclophilin served as the house keeping gene. In Supplementary methods panel 5, the primer sequences are shown.
# [2] = test system: canonical Wnt/Fzd-1/2 signaling; test: TOPflash experiments in CHO and COS-7 cells overexpressing rFzd-1 or -2; assay type: cell-based
# From the text: Three areas of high homology that contained two cysteines are underlined (UM207), (UM208) and (UM206). In FIGS. 9B through 9D, the inhibitory effect of these three peptides on Wnt3a-induced luciferase activity in HEK293-superTOPflash is shown. […] Again, the peptides by themselves had no effect on the luciferase activity.
# For the luciferase experiments not in HEK cells, the cells were additionally transfected with a TOPflash construct, eight TCF/LEF binding sites cloned into the pTA-Luc vector. Luciferase activity was measured using luciferase assay system (Promega, Madison Wis., USA).
# frizzled-2 (rFzd-2) = molecular target: T1, frizzled-2 (rFzd-2) (Rattus norvegicus, UniProt Q08464); test: Activity assay: Wnt3a-induced luciferase (superTOPflash) in HEK cells transfected with frizzled-2; assay type: cell-based
# T1 construct: expressed in transfected cells; host or cells: HEK293 superTOPflash (human embryonic kidney), transient, pcDNA3.1/hygro
# Experimental: Human embryonic kidney (HEK) cells were used for screening. These cells have a luciferase construct stably transfected into the genome (see FIG. 2A), such that when the frizzled receptor is activated and β-catenin is increased, the luciferase is activated by transcription and light can be measured.
# The peptides were tested by transfecting the frizzled-1 or the frizzled-2 receptor and addition of UM206(S-S) to the cell culture. For testing antagonistic activity, UM206 was added and the natural ligand Wnt3a was added, which is a natural stimulus for the canonical pathway.
# Day 2: Transfection 12-well plates • heat Fugene6 and DNA 15 minutes at RT • 2 ml serum-free medium in tube • add 3μl fugene • add 2 μg DNA • incubate 30 minutes at RT • wash with PBS • add 50 μtransfectiemix • add 1 ml antibiotica-free medium
# Day 3: Add conditioned medium or UM206
# Day 4: Luciferase activity measurements • remove medium • wash with PBS • add 500 μl ⅕ lysisbuffer • shake for 60 minutes • centrifuge in tube • 20 μl lysaat and 50 μl luciferase in new tube for measurement • vortex • measure
# To determine the inhibitory constant of UM206-8, HEK293-superTOPflash cells were transfected with either rFzd-1 or -2 and incubated with Wnt3a (10^−9M) in the presence of increasing concentrations of either of the peptides (FIG. 15). For UM206, a biphasic inhibition curve was observed that was best fitted with a two-binding-state model.
# The cell lines were cultured in 75 cm^2 culture flasks (Corning, Schiphol, the Netherlands) in Dulbeco's modified essential medium with L-glutamine (2 mM), 10% fetal calf serum (Invitrogen, Merelbeke, Belgium), and 1% gentamycin (Sigma-Aldrich, Zwijndrecht, The Netherlands). Before starting the experiment, the cell lines were treated with plasmocin 25 μg/ml (Invivogen, Toulose, France) and tested with a mycoalert mycoplasma detection kit (Lonza, Rockland Me., USA). Cells were transiently transfected with Fugene6 (Roche, Indianapolis Ind., USA) with plasmid DNA, pcDNA3.1/hygro (Invitrogen) with frizzled-1/2/4 or Wnts 3a-5a or with pcDNA3.0 (Invitrogen) containing the β-catenin or frizzled-5 sequence. After transfection, the cells were cultured for 24 hours in conditioned medium, collected from the cultured L-cells, L-cells with Wnt3a or 5a (Invitrogen). At the same moment the antagonist was added.
# 129S6 mice = test: Infarct rupture in 129S6 mice; assay type: in vivo; settings: infarct rupture frequency ˜60%, unpublished observations
# From the text: Because of the lack of pharmacological tools to intervene in Wnt/Fzd signaling in vivo, only genetic interventions have been reported so far in studies on the role of Wnt signaling in infarct healing. Barandon et al. were the first to show a beneficial effect of overexpression on infarct healing of FrzA, a bovine homologue of soluble frizzled-related protein-1 (sFRP1). They observed a decreased infarct size with elevated numbers of myofibroblasts and increased angiogenesis in the infarcted FrzA transgenic mice (Barandon et al., 2003), which could be confirmed in the present study using an Fzd-1 and -2 antagonist. […] In the mean time, the beneficial effects of sFRP overexpression on infarct healing have been confirmed by Kobayashi et al. (Kobayashi et al., 2009). Taken together, these reports support the observations of the present study and point to a beneficial effect of inhibiting Wnt/Fzd signaling on the wound-healing process after MI.
# T1 sequence (Q08464 29-570): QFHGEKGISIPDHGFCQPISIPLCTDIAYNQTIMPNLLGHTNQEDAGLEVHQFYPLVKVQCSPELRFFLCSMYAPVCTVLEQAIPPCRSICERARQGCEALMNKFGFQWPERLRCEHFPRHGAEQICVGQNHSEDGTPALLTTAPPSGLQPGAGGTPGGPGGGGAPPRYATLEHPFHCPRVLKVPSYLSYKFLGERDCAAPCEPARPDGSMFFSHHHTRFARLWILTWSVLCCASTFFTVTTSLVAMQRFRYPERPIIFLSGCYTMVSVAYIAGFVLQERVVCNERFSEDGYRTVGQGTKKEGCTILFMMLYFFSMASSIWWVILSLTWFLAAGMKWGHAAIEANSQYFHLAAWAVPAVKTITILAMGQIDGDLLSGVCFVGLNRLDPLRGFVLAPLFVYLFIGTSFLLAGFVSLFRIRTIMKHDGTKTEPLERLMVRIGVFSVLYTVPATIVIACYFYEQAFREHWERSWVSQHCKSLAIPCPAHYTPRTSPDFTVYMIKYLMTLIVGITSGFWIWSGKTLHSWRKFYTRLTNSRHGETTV
compound,measurement,setting,value
"CSCC[C@H](NC(=O)CNC(=O)[C@H](CCC(=O)O)NC(=O)[C@H](CO)NC(=O)[C@@H](NC(=O)[C@H](CCCCN)NC(=O)[C@H](CC(N)=O)NC(=O)[C@H](CS)NC(C)=O)[C@@H](C)O)C(=O)N[C@@H](CC(=O)O)C(=O)NCC(=O)N[C@@H](CS)C(=O)N[C@@H](CCC(=O)O)C(=O)N[C@@H](CC(C)C)C(N)=O [UM206, Ac-Cys-Asn-Lys-Thr-Ser-Glu-Gly-Met-Asp-Gly-Cys-Glu-Leu-NH2] (Ac-CNKTSEGMDGCEL-NH2)",half-life,"[1]; 15 ng into the tail vein of mice, HPLC, n=24",1.39 h
same,half-life,"[1]; male, Swiss, mouse, plasma",~1.5 h
same,half-life,"[1]; male, Swiss, mouse, plasma, intravenous, 15 ng",1.39 ± 0.0272 h
same,half-life,Pharmacokinetics in rats,around 90 minutes
same,influence on the expression patterns in the small intestine,small intestine; UM206 for five weeks,These data indicate that UM206 had no influence on the expression patterns in the small intestine.
same,Rel. exp. Ascl 2,small intestine; small intestine,1.42
same,Rel. exp. Axin 2,small intestine; small intestine,1.05
same,Rel. exp. CD 44,small intestine; small intestine,1.22
same,Rel. exp. Col I,small intestine; small intestine,1.32
same,Rel. exp. Dvl 2,small intestine; small intestine,1.13
same,Rel. exp. Inos,small intestine; small intestine,1.18
same,Rel. exp. Itm 2A,small intestine; small intestine,0.97
same,Rel. exp. Mmp 2,small intestine; small intestine,1.32
same,Blocking of canonical Wnt/Fzd-1/2 signaling in two other cell lines,[2],selectively block
same,Higher affinity for rFzd-2 than for rFzd-1,frizzled-2 (rFzd-2),~100 fold
same,Selectivity frizzled-2 over frizzled-1,frizzled-2 (rFzd-2),slightly more selective for frizzled-2 over frizzled-1
same,"Blocking of Wnt3a-induced luciferase activity, frizzled-2",frizzled-2 (rFzd-2); increasing amounts of antagonist,completely and concentration-dependently blocked
same,"Blocking of Wnt3a-induced luciferase activity, rFzd-2",frizzled-2 (rFzd-2); peptide 1.10^−8 M,blocked almost completely; also recorded: abolished the induction of luciferase activity almost completely
same,Effect of the antagonist on its own on luciferase activity,frizzled-2 (rFzd-2); without Wnt3a,no effect
same,number of ruptured infarcts,129S6 mice,did not reduce the number of ruptured infarcts

# From US8598122B2, “Antagonistic peptides for frizzled-1 and frizzled-2” (Universiteit Maastricht, priority 2009, dated 2013)
